Calls of active or inactive are those of the source. The rule behind the calls is not given here.
Assays:
[1] = Binding affinity to AATT DNA hairpin sequence (unknown origin) by SPR assay
[2] = Binding affinity to (AT)4 DNA hairpin sequence (unknown origin) by SPR assay
[3] = Binding affinity to (CG)4 DNA hairpin sequence (unknown origin) by SPR assay
[4] = Selectivity index, ratio of binding affinity to (AT)4 DNA hairpin sequence (unknown origin) to binding affinity to AATT DNA hairpin sequence (unknown origin)
Salmonidae [5] = assay: Binding affinity to salmon sperm DNA assessed as increase in DNA thermal melting temperature at 15 uM spectrophotometry
[6] = Binding affinity to poly(dA.dT)2 oligonucleotide DNA (unknown origin) assessed as increase in DNA thermal melting temperature at 15 uM spectrophotometry
[7] = Binding affinity to poly(dA).poly(dT) oligonucleotide DNA (unknown origin) assessed as increase in DNA thermal melting temperature at 15 uM spectrophotometry
Salmonidae [8] = assay: Binding affinity to salmon sperm DNA assessed as change in ICD signals by CD spectroscopy
[9] = Binding affinity to poly(dA.dT)2 oligonucleotide DNA (unknown origin) assessed as change in ICD signals by CD spectroscopy
Salmonidae [10] = assay: Binding affinity to salmon sperm DNA by UV spectroscopy
[11] = Binding affinity to poly(dA.dT)2 oligonucleotide DNA (unknown origin) by UV spectroscopy
[12] = Binding affinity to poly(dG.dC)2 oligonucleotide DNA (unknown origin) by UV spectroscopy
[13] = Binding affinity to poly(dG.dC)2 oligonucleotide DNA (unknown origin) assessed as change in ICD signals by CD spectroscopy

| Compound | K [1] | K [2] | K [3] | Selectivity Index [4] | ΔTm (Salmonidae [5]) | ΔTm [6] | ΔTm [7] | Activity (Salmonidae [8]) | Activity [9] | K (Salmonidae [10]) | K [11] | K [12] | Activity [13] |
| --- | --- | --- | --- | --- | --- | --- | --- | --- | --- | --- | --- | --- | --- |
| Nc1ccc2cc3ccc(N)cc3nc2c1 | 5.7 ×10⁵ /M | 12.2 ×10⁵ /M | 6.5 ×10⁵ /M | < 2.4 | – | – | – | – | – | – | – | – | – |
| c1cc2c(cc1NC1=NCCN1)Cc1ccc(NC3=NCCN3)cc1-2 | 15 ×10⁵ /M | 36.2 ×10⁵ /M | 6.5 ×10⁵ /M | < 2.4 | 9 °C | 26 °C | 31 °C | Active | Active | 1.9 ×10⁵ /M | 14 ×10⁵ /M | 9.2 ×10⁵ /M | – |
| N=C(N)Nc1ccc2c(c1)Cc1ccc(NC(=N)N)cc1C2 | – | – | – | – | 4 °C | -3 °C | 4 °C | inactive | inactive | – | – | – | – |
| N=C(N)Nc1ccc2c(c1)Cc1ccc(NC3=NCCN3)cc1-2 | – | – | – | – | 4 °C | 22 °C | 20 °C | Active | Active | – | – | – | Active |
| c1cc(C2CCN(c3ccc(NC4=NCCN4)cc3)CC2)ccc1NC1=NCCN1 | 1.1 ×10⁵ /M | 1.4 ×10⁵ /M | 1.5 ×10⁵ /M | < 2.4 | – | – | – | – | – | – | – | – | – |
| c1cc(NC2=NCCN2)cc(Sc2ccc(NC3=NCCN3)cc2)c1 | 1.6 ×10⁵ /M | 3.2 ×10⁵ /M | 2.5 ×10⁵ /M | < 2.4 | – | – | – | – | – | – | – | – | – |
| c1cc(NC2=NCCN2)ccc1CCc1ccc(NC2=NCCN2)cc1 | < 1 ×10⁵ /M | 1 ×10⁵ /M | < 1 ×10⁵ /M | < 2.4 | – | – | – | – | – | – | – | – | – |
| c1cc(NC2=NCCN2)cc(Oc2ccc(NC3=NCCN3)cc2)c1 | < 1 ×10⁵ /M | 1.5 ×10⁵ /M | < 1 ×10⁵ /M | < 2.4 | – | – | – | – | – | – | – | – | – |
| c1cc2c(cc1NC1=NCCN1)Cc1ccc(NC3=NCCN3)cc1C2 | 2.7 ×10⁵ /M | 5.1 ×10⁵ /M | 5.5 ×10⁵ /M | < 2.4 | 20 °C | 1 °C | 12 °C | inactive | inactive | – | – | – | – |

Reference: ChEMBL document CHEMBL3351880, “Unexpected DNA affinity and sequence selectivity through core rigidity in guanidinium-based minor groove binders” (J Med Chem, 2014)
